Measurements from PubChem BioAssay AID330 (DTP/NCI, 2004).
Values joined by “and” are separate entries in the source; they are usually repeats but may differ in a detail not shown here. Equal entries are not always repeated. Toxic doses and inconclusive results are not listed.

Test system: P388 leukemia ip, CD2F1 mice, survival T/C
Assay: NCI In Vivo Anticancer Drug Screen. Data for tumor model P388 Leukemia (intraperitoneal) in CD2F1 (CDF1) mice
Settings: endpoint: median survival time, higher = longer survival
Summary of the method: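 Mice carrying the transplanted tumor received test compound or vehicle. Survival was recorded in each group, and the value is the treated-group measurement divided by that of the vehicle-treated control group.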

[1] = dose: 3.13 mg/kg/injection, schedule: Q01DX009 (ip), vehicle: water
[2] = dose: 6.25 mg/kg/injection, schedule: Q01DX009 (ip), vehicle: water
[3] = dose: 12.5 mg/kg/injection, schedule: Q01DX009 (ip), vehicle: water
[4] = dose: 200.0 mg/kg/injection, schedule: Q01DX009 (ip), vehicle: saline with Tween-80
[5] = dose: 60.0 mg/kg/injection, schedule: Q01DX005 (ip), vehicle: saline with Tween-80
[6] = dose: 120.0 mg/kg/injection, schedule: Q01DX005 (ip), vehicle: saline with Tween-80
[7] = dose: 240.0 mg/kg/injection, schedule: Q01DX005 (ip), vehicle: saline with Tween-80
[8] = dose: 50.0 mg/kg/injection, schedule: Q01DX005 (ip), vehicle: Klucel (hydroxypropylcellulose) (HPC)
[9] = dose: 100.0 mg/kg/injection, schedule: Q01DX005 (ip), vehicle: Klucel (hydroxypropylcellulose) (HPC)
[10] = dose: 30.0 mg/kg/injection, schedule: Q01DX005 (ip), vehicle: saline with Tween-80
[11] = dose: 200.0 mg/kg/injection, schedule: Q01DX005 (ip), vehicle: Klucel (hydroxypropylcellulose) (HPC)
[12] = dose: 50.0 mg/kg/injection, schedule: Q01DX009 (ip), vehicle: Klucel (hydroxypropylcellulose) (HPC)
[13] = dose: 50.0 mg/kg/injection, schedule: Q01DX009 (ip), vehicle: saline
[14] = dose: 100.0 mg/kg/injection, schedule: Q01DX009 (ip), vehicle: saline
[15] = dose: 200.0 mg/kg/injection, schedule: Q01DX009 (ip), vehicle: saline
[16] = dose: 25.0 mg/kg/injection, schedule: Q01DX009 (ip), vehicle: water
[17] = dose: 50.0 mg/kg/injection, schedule: Q01DX005 (ip), vehicle: saline with Tween-80
[18] = dose: 100.0 mg/kg/injection, schedule: Q01DX005 (ip), vehicle: saline with Tween-80
[19] = dose: 200.0 mg/kg/injection, schedule: Q01DX005 (ip), vehicle: saline with Tween-80
[20] = dose: 100.0 mg/kg/injection, schedule: Q01DX001 (ip), vehicle: saline with Tween-80
[21] = dose: 200.0 mg/kg/injection, schedule: Q01DX001 (ip), vehicle: saline with Tween-80
[22] = dose: 400.0 mg/kg/injection, schedule: Q01DX001 (ip), vehicle: saline with Tween-80
[23] = dose: 25.0 mg/kg/injection, schedule: Q01DX005 (ip), vehicle: Klucel (hydroxypropylcellulose) (HPC)

SMILES: CCOC1=N[C@H](C)[C@H](C)N1
- T/C (dose: 50.0 mg/kg/injection, schedule: Q01DX005 (ip), vehicle: saline): 100 % of control
- T/C (dose: 100.0 mg/kg/injection, schedule: Q01DX005 (ip), vehicle: saline): 103 % of control

SMILES: C=C1C(=O)O[C@H]2C[C@@H]3O[C@@H]3[C@@H]12
- T/C (dose: 1.56 mg/kg/injection, schedule: Q01DX009 (ip), vehicle: water): 98 % of control
- T/C [1]: 100 % of control
- T/C [2]: 100 % of control
- T/C [3]: 109 % of control

SMILES: O=C(c1ccccc1)c1ccc2c(c1)-c1ccccc1-2
- T/C (dose: 100.0 mg/kg/injection, schedule: Q01DX009 (ip), vehicle: saline with Tween-80): 100 % of control
- T/C [4]: 104 % of control
- T/C (dose: 400.0 mg/kg/injection, schedule: Q01DX009 (ip), vehicle: saline with Tween-80): 95 % of control

SMILES: O=c1oc2ccccc2cc1-n1nnc2ccccc21
- T/C [5]: 98 % of control
- T/C [6]: 90 % of control
- T/C [7]: 90 % of control

SMILES: CS(=O)(=O)c1nnc(-c2cccc[n+]2[O-])s1
- T/C [8]: 116 % of control
- T/C [9]: 114 % of control

SMILES: O=C(Cc1ccc(OCc2ccccc2)cc1)NCc1ccc2c(c1)OCO2
- T/C (dose: 15.0 mg/kg/injection, schedule: Q01DX005 (ip), vehicle: saline with Tween-80): 96 % of control
- T/C [10]: 91 % of control
- T/C [5]: 89 % of control

SMILES: Cc1cc(N=[N+]=[N-])c2cc(F)ccc2n1
- T/C [10]: 92 % of control
- T/C [5]: 90 % of control and 92 % of control

SMILES: COc1ccc(C(=O)c2c(OC)cccc2C(=O)O)cc1
- T/C [8]: 105 % of control
- T/C [9]: 105 % of control
- T/C [11]: 97 % of control

SMILES: CCCCCCCCCCN1CCS(=O)(=O)CC1
- T/C [12]: 101 % of control
- T/C (dose: 100.0 mg/kg/injection, schedule: Q01DX009 (ip), vehicle: Klucel (hydroxypropylcellulose) (HPC)): 100 % of control
- T/C (dose: 200.0 mg/kg/injection, schedule: Q01DX009 (ip), vehicle: Klucel (hydroxypropylcellulose) (HPC)): 98 % of control

SMILES: O=C(CO)N(CCO)CCO
- T/C [13]: 98 % of control
- T/C [14]: 95 % of control
- T/C [15]: 96 % of control

SMILES: CCCCOC(=O)Nc1ccc(C)c(NC(=O)OCCCC)c1
- T/C [13]: 100 % of control
- T/C [14]: 102 % of control
- T/C [15]: 100 % of control

SMILES: Cc1c2oc3c(C)ccc(C(=O)NC4C(=O)NC(C(C)C)C(=O)N5CCCC5C(=O)N(C)CC(=O)N(C)C(C(C)C)C(=O)OC4C)c3nc-2c(C(=O)NC2C(=O)NC(C(C)C)C(=O)N3CCCC3C(=O)N(C)CC(=O)N(C)C(C(C)C)C(=O)OC2C)c(Cl)c1=O (stereo unspecified)
- T/C (dose: 0.05 mg/kg/injection, schedule: Q01DX009 (ip), vehicle: water): 98 % of control
- T/C (dose: 0.1 mg/kg/injection, schedule: Q01DX009 (ip), vehicle: water): 96 % of control
- T/C (dose: 0.2 mg/kg/injection, schedule: Q01DX009 (ip), vehicle: water): 114 % of control
- T/C (dose: 0.4 mg/kg/injection, schedule: Q01DX009 (ip), vehicle: water): 106 % of control
- T/C (dose: 0.8 mg/kg/injection, schedule: Q01DX009 (ip), vehicle: water): 110 % of control
- T/C [1]: 150 % of control
- T/C [2]: 172 % of control
- T/C (dose: 6.4 mg/kg/injection, schedule: Q01DX009 (ip), vehicle: water): 171 % of control
- T/C [3]: 172 % of control and 243 % of control
- T/C [16]: 101 % of control and 256 % of control

SMILES: CCOC(=O)c1cn2ccccc2c(C(C)=O)c1=N
- T/C (dose: 100.0 mg/kg/injection, schedule: Q04DX003 (ip), vehicle: saline): 100 % of control
- T/C (dose: 200.0 mg/kg/injection, schedule: Q04DX003 (ip), vehicle: saline): 100 % of control
- T/C (dose: 400.0 mg/kg/injection, schedule: Q04DX003 (ip), vehicle: saline): 94 % of control

SMILES: COc1ccc(NC(=O)Nc2ccc(C#N)cc2)cc1
- T/C [5]: 101 % of control
- T/C [6]: 93 % of control
- T/C [7]: 93 % of control

SMILES: CNC(=O)N(C)N=NCCCl
- T/C [17]: 175 % of control
- T/C (dose: 52.5 mg/kg/injection, schedule: Q01DX005 (ip), vehicle: saline with Tween-80): 161 % of control
- T/C [18]: 196 % of control
- T/C (dose: 105.0 mg/kg/injection, schedule: Q01DX005 (ip), vehicle: saline with Tween-80): 181 % of control
- T/C [19]: 297 % of control
- T/C (dose: 210.0 mg/kg/injection, schedule: Q01DX005 (ip), vehicle: saline with Tween-80): 297 % of control
- T/C (dose: 400.0 mg/kg/injection, schedule: Q01DX005 (ip), vehicle: saline with Tween-80): 99 % of control

SMILES: COCC(CC(=O)O)C(C(=O)O)C(=O)O (stereo unspecified)
- T/C [3]: 100 % of control
- T/C [16]: 106 % of control
- T/C (dose: 50.0 mg/kg/injection, schedule: Q01DX009 (ip), vehicle: water): 106 % of control
- T/C (dose: 100.0 mg/kg/injection, schedule: Q01DX009 (ip), vehicle: water): 93 % of control
- T/C (dose: 200.0 mg/kg/injection, schedule: Q01DX009 (ip), vehicle: water): 92 % of control

SMILES: COc1cc(CCl)c(I)c(OC)c1OC
- T/C (dose: 100.0 mg/kg/injection, schedule: Q01DX001 (ip), vehicle: Klucel (hydroxypropylcellulose) (HPC)): 103 % of control
- T/C (dose: 200.0 mg/kg/injection, schedule: Q01DX001 (ip), vehicle: Klucel (hydroxypropylcellulose) (HPC)): 107 % of control
- T/C (dose: 400.0 mg/kg/injection, schedule: Q01DX001 (ip), vehicle: Klucel (hydroxypropylcellulose) (HPC)): 102 % of control

SMILES: COC(=O)C(Cl)(Cl)C1(c2ccccc2)OCC(C)(C)N1C(=O)C(Cl)Cl (stereo unspecified)
- T/C [20]: 100 % of control
- T/C [21]: 100 % of control
- T/C [22]: 100 % of control

SMILES: Cc1ccc2c(ccc(CC(=S)[S-])[n+]2C)c1
- T/C (dose: 25.0 mg/kg/injection, schedule: Q01DX009 (ip), vehicle: Klucel (hydroxypropylcellulose) (HPC)): 114 % of control
- T/C [12]: 120 % of control

SMILES: CCOC(=O)C1(C(=O)OCC)C(C)CC(=O)N1c1ccccc1OC (stereo unspecified)
- T/C [5]: 104 % of control
- T/C [6]: 100 % of control
- T/C [7]: 95 % of control

SMILES: COC1N(Cc2ccccc2)C=C2C(=O)NC(=O)C3NC(c4ccccc4)C1(C)C23C (stereo unspecified)
- T/C [8]: 90 % of control
- T/C [9]: 91 % of control
- T/C [11]: 88 % of control and 92 % of control

SMILES: CC1(C)Oc2cc3oc(C(=O)O)cc(=O)c3cc2-c2ccccc21
- T/C [13]: 92 % of control
- T/C [14]: 96 % of control
- T/C [15]: 109 % of control

SMILES: CC1CCC2(C(=O)O)CCC3(C)C(=CCC4C5(C)CC(O)C(O)C(C)(CO)C5C(O)CC43C)C2C1C (stereo unspecified)
- T/C [23]: 90 % of control
- T/C [8]: 92 % of control
- T/C [9]: 95 % of control

SMILES: CN(c1ccccc1)c1c2c(oc(=O)c1Cl)-c1ccccc1SC2
- T/C (dose: 6.25 mg/kg/injection, schedule: Q01DX009 (ip), vehicle: saline with Tween-80): 91 % of control
- T/C (dose: 25.0 mg/kg/injection, schedule: Q01DX009 (ip), vehicle: saline with Tween-80): 93 % of control
- T/C [4]: 93 % of control

SMILES: CCCCCCCCCCCCCCCCS(=O)(=O)N/N=C(/c1ccc(OC)c(OC)c1)N1CCCCC1
- T/C (dose: 50.0 mg/kg/injection, schedule: Q01DX009 (ip), vehicle: other): 102 % of control
- T/C (dose: 100.0 mg/kg/injection, schedule: Q01DX009 (ip), vehicle: other): 91 % of control
- T/C (dose: 200.0 mg/kg/injection, schedule: Q01DX009 (ip), vehicle: other): 93 % of control

SMILES: C/C=C/C[P+](CC)(c1ccccc1)c1ccccc1
- T/C (dose: 0.78 mg/kg/injection, schedule: Q01DX009 (ip), vehicle: saline): 103 % of control
- T/C (dose: 1.56 mg/kg/injection, schedule: Q01DX009 (ip), vehicle: saline): 97 % of control
- T/C (dose: 3.13 mg/kg/injection, schedule: Q01DX009 (ip), vehicle: saline): 112 % of control

SMILES: COc1ccc2c(c1)CN(CCc1ccc([N+](=O)[O-])cc1)CO2
- T/C [17]: 96 % of control
- T/C [18]: 94 % of control
- T/C [19]: 96 % of control

SMILES: Ic1ncn(CCN2CCOCC2)c1I
- T/C [23]: 88 % of control
- T/C [8]: 97 % of control
- T/C [9]: 94 % of control
- T/C [11]: 97 % of control

SMILES: Cc1nn(C)c(=O)c2c3ccccc3nn12
- T/C [20]: 100 % of control
- T/C [21]: 95 % of control
- T/C [22]: 100 % of control

SMILES: CC1(C)OC(=O)C=C1Sc1ccccc1
- T/C [17]: 100 % of control
- T/C [18]: 105 % of control
- T/C [19]: 105 % of control
